For the series the following is noted: rat; liver microsomes; pH 7.4; 15.0 min; 1.0 µM. In general terms: Liver microsomes are a subcellular fraction often used to study metabolism.

Consider `N=c1c2c(n(Cc3ccccc3)c3c1CCC3)CCC2`, for which the half-life was 4.04 min.
Next, `CCOC(=O)NNc1ccc(N(CC)CC(C)O)nn1` (stereo not given): more than 30 min; `CCOc1ccc(CCNC(=O)c2cc3cccnc3n2Cc2cccc(C)c2)cc1OCC`: 1.7 min.
In turn, `Cn1nnnc1Sc1ncnc2scc(-c3cccc(S(C)(=O)=O)c3)c12` yielded a half-life of more than 30 min.
Next, `O=[S+]([O-])(Nc1nccs1)c1ccc(NCc2cccc3c2NCC3)cc1`: more than 30 min.
The value for `CCOc1ccc(CCNC(=O)c2ccccc2)cc1OCC` was 1.5 min; that for `COc1ccccc1-n1cnc2cc(C(=O)N3CCCCC3)ccc21` was 3.2 min.
In the case of `O=C(Nc1ccc(N2CCC(N3CCCCC3)CC2)c(C(=O)O)c1)c1ccc(Br)cc1`, the half-life is more than 30 min.
Next, `Cc1ccc(Nc2nc(NCCO)c3ccccc3n2)cc1C`: 2.42 min; `Oc1ccc(CNc2cccnc2)c2cccnc12`: 3.56 min.
Next, `CN1CC(CNC(=O)OCc2ccccc2)C[C@H]2c3cccc4c3c(cn4C)CC21` (stereo not given in full): 14.3 min; `CCOC(=O)N1CCN(Cc2nc3c(c(=O)n(C)c(=O)n3C)n2Cc2cccc(C)c2)CC1`: 4.9 min.
Next, `Cc1ccc(CN2C(=O)C(O)(CC(=O)c3ccc(C)cc3)c3ccccc32)cc1` (stereo not given): 1.18 min; `O=C(Cc1nc2ccc(Cl)cc2[nH]1)Nc1ccc(S(=O)(=O)Nc2nccs2)cc1`: more than 30 min.
With `COc1ccc(C(=O)N2CCCC(c3nn(-c4ccc(OC)cc4)c(=O)[nH]3)C2)cc1` (stereo not given), the half-life was more than 30 min.
Next, `Cc1cnc(-c2ccccc2OC(C)C)nc1NCc1ccc(-n2ccnn2)cc1`: 6.45 min; `CCOc1ccc(N2CC(c3nc(-c4ccccn4)no3)CC2=O)cc1` (stereo not given): more than 30 min; `Cc1cc(C(=O)Nc2nnc(C3CCCCC3)s2)cs1`: 7.1 min.
Next, `CCOC(=O)C1CCN(c2ncnc3c2c(-c2ccccc2)cn3-c2ccccc2)CC1`: 1.69 min.
Next, `Cc1ccccc1N(C)C1CN([S+](=O)([O-])c2cccc(C(F)(F)F)c2)C1`: 1.98 min; `COc1ccc(Nc2nnc(-c3ccc(C)c(S(=O)(=O)NCc4nc5ccccc5[nH]4)c3)c3ccccc23)cc1`: 5.72 min.
`O=C(NCCc1ccccn1)C1CC(=O)N(c2n[nH]c3cc(Br)ccc23)C1` (stereo not given): the half-life was 29.7 min.
Next, `CCCCOc1ccc(C2c3c(oc4ccc(C)cc4c3=O)C(=O)N2CCCN(C)C)cc1OCC` (stereo not given): 25.9 min.
Take `Nc1cc(-c2nc(Nc3ccc(F)c(F)c3)c3ccccc3n2)ccn1`: the half-life was 15 min.
The value for `Cc1cc(S(=O)(=O)Nc2cnccc2C(=O)Nc2nc(-c3ccccc3)cs2)c(C)o1` was 8.55 min; that for `Cc1sc(NC(=O)Cc2ccc3c(c2)OCO3)nc1-c1ccc2c(c1)CCN2` was 8.6 min.
Regarding `CN1CCN(Cc2ccc(NC(=O)Cc3ccc(Oc4cc(NC(=O)C5CC5)ncn4)cc3)cc2C(F)(F)F)CC1`, the half-life was more than 30 min.
Next, `Cc1noc(-c2cn(C3CCN(C(=O)c4ccc(OC(F)(F)F)cc4)CC3)nn2)n1`: more than 30 min.
Next, `O=S(=O)(c1ccccc1)c1nnn2c1nc(NCc1cccs1)c1sccc12`: 1.88 min; `CC(CCc1ccc(O)cc1)NCc1ccc(Cl)cc1Cl` (stereo not given): 1.7 min.
`Cc1cc(Br)ccc1NC(=O)C(NS(=O)(=O)c1cccs1)c1ccccc1` (stereo not given) had a half-life of 7.26 min.
With `CS(=O)(=O)c1ccc(-c2nnc(/C=C/c3nnc(-c4ccc(C#N)cc4)o3)n2-c2ccccc2Cl)nc1`, the half-life was more than 30 min.
Next, `O=C(c1ccc2c(c1)OCO2)N1CCC(Cc2nc(-c3cnccn3)no2)CC1`: more than 30 min.
`Fc1ccc(Nc2cc(-c3ccccc3)nc(-c3ccncc3)n2)cc1F`: the half-life is more than 30 min.
The value for `C=CCON=C(C[C@H]1O[C@@H]2O[C@]3(C)CC[C@@H]4[C@H](C)CC[C@@H]([C@H]1C)[C@@]24OO3)[C@H]1O[C@@H]2O[C@]3(C)CC[C@H]4[C@H](C)CC[C@@H]([C@@H]1C)[C@@]24OO3` was 2.8 min.
The value for `COc1ccc(-n2nc(C3CCCN(CC4CCCCC4)C3)[nH]c2=O)cc1` (stereo not given) was more than 30 min; that for `CCC(CC)c1cc([C@H]2CN3CC[C@H]2C[C@@H]3CNC(C)=O)nc(-c2ccncc2)n1` was 10.9 min; that for `Cn1c2ccccc2c2c3c(c4c5ccccc5n(CCC#N)c4c21)CNC3=O` was 4.29 min.
The value for `Cc1noc(C)c1-c1cc(-c2ccc3c(c2)C(=O)NC3)cn2cncc12` was more than 30 min.
Take `COc1ccc(C2c3[nH]c4ccc(OC)cc4c3CCN2C(=O)Nc2ccccc2)cc1` (stereo not given): the half-life is 25.7 min.
The value for `O=C(O)c1ccnc2cc(C(OCC3CCC(F)(F)CC3)c3ccccc3Cl)[nH]c12` (stereo not given) was more than 30 min.
The value for `COc1ccc(-n2nc(C3CCCN(C(=O)Cc4ccc(F)cc4)C3)[nH]c2=O)cc1` (stereo not given) was 8.48 min; that for `CCn1c(=NC(=O)c2ccc(S(=O)(=O)N3CCCCC3)cc2)sc2cccc(OC)c21` was 9.5 min; that for `Cc1ccc(CSCc2ccc(C(=O)NC3CC3)o2)cc1` was 1.7 min.
The value for `CNc1ccc(Br)cc(C(=O)/C=C/c2ccc(OC)cc2OC)c1=O` was 5.16 min.
`C[C@@]12O[C@@H](C[C@]1(O)CO)n1c3ccccc3c3c4c(c5c6ccccc6n2c5c31)CNC4=O` gave a half-life of more than 30 min.
Next, `CN[C@@H]1C[C@@H](c2ccc(Cl)c(Cl)c2)c2ccccc21`: 17.2 min; `Cc1ccc(-c2cc(C(=O)Nc3ccc(C#N)cc3)c3ccccc3n2)cc1C`: more than 30 min.
Next, `O=C(Nc1ccc(Br)cc1)c1ccc(F)c(S(=O)(=O)NC2CCCCCC2)c1`: 3.66 min; `Cc1cccc(CNc2ccc(S(=O)(=O)Nc3nccs3)cc2)c1O`: 21 min; `Fc1ccc(Cc2nc3nccc(-c4cccs4)n3n2)cc1`: 2.95 min.
The value for `N#Cc1ccc(NS(=O)(=O)c2ccc(NC(=O)Cc3ccc(Cl)c(Cl)c3)cc2)cc1` was more than 30 min.
`N#Cc1cnccc1-c1nc(Nc2ccc(F)c(F)c2)c2ccccc2n1` had a half-life of 6.4 min.
The value for `CCCCc1ccc(NC(=O)c2ccc3c(c2)N(S(C)(=O)=O)CC3)cc1` was 4.38 min; that for `CCOC(=O)c1ccc(NC(=O)c2sc3nc4c(cc3c2N)N2CCC4CC2)cc1` was 1.21 min.
The value for `Cc1onc(-c2ccc(F)cc2)c1COc1ccc(C(=O)N2CCS(=O)(=O)CC2)cn1` was 9.64 min; that for `O=C(c1cccs1)c1nonc1C(=O)c1cccs1` was 1.49 min.
`Fc1cccc(Nc2nc(-c3ccncc3)nc3ccccc23)c1F` gave a half-life of 11 min. Compared with the last compound, the half-life is about 7.4-fold higher.
The value for `Cc1ccnc(NC(=S)N2CCN(c3ccc(Cl)cc3Cl)CC2)c1` was more than 30 min; that for `Cn1nnnc1Sc1ncnc2scc(Br)c12` was 19.6 min; that for `Clc1ccc2ncc(-c3cccc(NC4CCNC4)n3)n2c1` (stereo not given) was 21.8 min.
Consider `CN1CCN(C2=Nc3ccccc3Sc3ccc(Cl)cc32)CC1`, for which the half-life was 1.11 min.
Next, `COc1ncccc1-c1cc2c(ccn2CC2CCN([S+](C)(=O)[O-])CC2)c(N2CCOCC2)n1`: 13.9 min.
Next, `Cc1ccc(/C=C/c2nc3ccccc3n2S(=O)(=O)c2cccc(Cl)c2)cc1`: 17.6 min; `Cc1ccc(S(=O)(=O)Nc2cnccc2C(=O)Nc2nc(-c3ccco3)cs2)cc1`: 1.9 min.
Next, `CN(C)C(=O)NC1CCC(CCN2CCN(c3cccc(Cl)c3Cl)CC2)CC1` (stereo not given): more than 30 min; `COc1cc(O)c([C@H](CC(=O)N2CC(C)CC(C)C2)c2ccc3c(c2)OCO3)c(OC)c1` (stereo not given in full): 3.3 min; `CC(=O)c1sc(NC(=O)c2ccco2)nc1-c1ccccc1`: 1.8 min.
The compound `O=C1CCCC2=C1C(c1[nH]ncc1Cl)N=C(Nc1nc3cc(F)ccc3o1)N2` (stereo not given) displayed a half-life of 17 min.
The compound `Cn1c2cc(S(C)=O)sc2c2cnn(Cc3cccc(N)c3)c(=O)c21` (stereo not given) displayed a half-life of more than 30 min.
Next, `CCN(CC)CCO[C@H]1CC[C@@]2(C)C(=CC[C@@H]3[C@@H]2CC[C@]2(C)C(=O)CC[C@@H]32)C1`: 5.67 min.
The value for `CCCCn1cnc2cc(NC(=O)c3cc(OC)c(OC)c(OC)c3)ccc21` was more than 30 min; that for `COc1cc(-c2nc(-c3c(C)noc3C)cc3c2cc(C)n3CCN(C)C)ccn1` was 19.7 min; that for `O=C(Nc1ccc(-c2ccccc2)cc1)[C@H](Cc1ccc(O[S+](=O)([O-])c2cccc3cnccc23)cc1)N[S+](=O)([O-])c1cccc2cnccc12` was 3.1 min.
Next, `Fc1cccc(F)c1Nc1nc(-c2ccncc2)nc2ccccc12`: 29 min; `CCn1nc(C2CCN(C(=O)CCO)CC2)nc1-c1cnc(N)c(-c2nnc(C(C)(C)C)o2)n1`: more than 30 min.
In turn, `COc1ccc(OC)c(CN2CCNc3cc(Nc4ccccc4)ncc3C2)c1` gave a half-life of 2.23 min.
The value for `Cc1cc(-c2nnc3n2CCCCC3)c(C)n1-c1ccc(Cl)cc1` was 1.9 min; that for `O=C(NCC1(c2nc(-c3ccccc3)cs2)CCOCC1)c1cccc(-c2noc(C(F)(F)F)n2)c1` was 2.92 min; that for `Cc1cc(C)nc(NC(=S)N2CCN(c3ccc(Cl)cc3[N+](=O)[O-])CC2)c1` was 15 min.
Next, `Fc1ccc(Oc2nc(-c3ccncc3)nc3ccccc23)cc1F`: 15 min.
Next, `CC(=O)Nc1nc(-c2ccc3c(c2)CCN3C(=O)c2ccccc2C)c(C)s1`: 18 min; `COc1cccc(Nc2nc(-c3ccncc3)nc3ccccc23)c1`: 4.3 min; `Cc1ccc2oc(NC3=NC(c4ccccc4Cl)C4=C(CCCC4=O)N3)nc2c1` (stereo not given): more than 30 min.
The compound `CCc1ccc2oc(=O)cc(CN3CCN(c4ccccc4F)CC3)c2c1` registered a half-life of 3 min.
Next, `CSc1ccc(C(=O)c2[nH]c(=O)[nH]c2C)cc1`: more than 30 min; `O=C(NCCCc1ccccc1)C1CCN(c2nc(-c3ccc(Br)cc3)cs2)CC1`: 2.96 min; `Cc1ccc(S(=O)(=O)Nc2ccccc2C(=O)Nc2ccc(-c3ccccc3)nc2)cc1`: 2.7 min.
`COc1ccc(C(=O)Nc2ccc3c(c2)N(C2CCCC2)C(=O)c2ccccc2S3)cc1OC`: the half-life stood at 1.7 min.
Next, `O=C(Nc1ccc(S(=O)(=O)Nc2nccs2)cc1)c1ccncc1`: more than 30 min.

By half-life is commonly meant the time in which the quantity being followed falls by half. A high value points to slow decline.

These data come from PubChem BioAssay AID1508591.
